Laboratory results from article PMC12203311, “Design, synthesis, in silico and in vitro evaluation of pyrrole–indole hybrids as dual tubulin and aromatase inhibitors with potent anticancer activities” (RSC Advances, 2025).

Key:
NCI-H522 = test: NCI60 five-dose screen; type: cell-based; details: Homo sapiens, NCI-H522, NSC lung cancer; for CC50: read-out: LC50 (the source's name)
HOP-92 = test: NCI60 five-dose screen; type: cell-based; details: Homo sapiens, HOP-92, NSC lung cancer; for CC50: read-out: LC50 (the source's name)
HCT-15 = test: NCI60 five-dose screen; type: cell-based; details: Homo sapiens, HCT-15, colon cancer; for CC50: read-out: LC50 (the source's name)
UO-31 = test: NCI60 five-dose screen; type: cell-based; details: Homo sapiens, UO-31, renal cancer; for CC50: read-out: LC50 (the source's name)
SF-295 = test: NCI60 five-dose screen; type: cell-based; details: Homo sapiens, SF-295, CNS cancer; for CC50: read-out: LC50 (the source's name)
HCT-116 = test: NCI60 five-dose screen; type: cell-based; details: Homo sapiens, HCT-116, colon cancer; for CC50: read-out: LC50 (the source's name)
MCF7 = test: NCI60 five-dose screen; type: cell-based; details: Homo sapiens, MCF7, breast cancer; for CC50: read-out: LC50 (the source's name)
OVCAR-8 = test: NCI60 five-dose screen; type: cell-based; details: Homo sapiens, OVCAR-8, ovarian cancer; for CC50: read-out: LC50 (the source's name)
[1] = Cytotoxicity MTT assay, L929; type: cell-based, mouse; details: mouse, L929 fibroblast cells; MTT, 48 hours
How it was run: (§1)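 Both lines were handled identically: 10 000 cells per well, overnight growth, 48 h with compound at the chosen concentrations, then 0.5 mg mL^−1 MTT for 3 h. Dissolved formazan was quantified at 570 nm against vehicle-treated wells.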

[2] = tested on: L929 normal mouse fibroblast cell line; test: Cytotoxicity MTT assay, L929; type: cell-based; details: IC50 (L929)/IC50 (T47D)
How it was run: as §1

HT29 = test: NCI60 five-dose screen; type: cell-based; details: Homo sapiens, HT-29, HT29, colon cancer; for CC50: read-out: LC50 (the source's name)
MOLT-4 = test: NCI60 five-dose screen; type: cell-based; details: Homo sapiens, MOLT-4, leukemia; for CC50: read-out: LC50 (the source's name)
SF-539 = test: NCI60 five-dose screen; type: cell-based; details: Homo sapiens, SF-539, CNS cancer; for CC50: read-out: LC50 (the source's name)
OVCAR-4 = test: NCI60 five-dose screen; type: cell-based; details: Homo sapiens, OVCAR-4, ovarian cancer; for CC50: read-out: LC50 (the source's name)
NCI-H322M = test: NCI60 five-dose screen; type: cell-based; details: Homo sapiens, NSC lung cancer; for CC50: read-out: LC50 (the source's name)
SK-MEL-28 = test: NCI60 five-dose screen; type: cell-based; details: Homo sapiens, SK-MEL-28, melanoma; for CC50: read-out: LC50 (the source's name)
NCI-H460 = test: NCI60 five-dose screen; type: cell-based; details: Homo sapiens, NCI-H460, NSC lung cancer; for CC50: read-out: LC50 (the source's name)
SN12C = test: NCI60 five-dose screen; type: cell-based; details: Homo sapiens, renal cancer; for CC50: read-out: LC50 (the source's name)
T-47D = test: NCI60 five-dose screen; type: cell-based; details: Homo sapiens, T47D, breast cancer; for CC50: read-out: LC50 (the source's name)
[3] = tested on: T47D breast cancer cell line; test: Cytotoxicity MTT assay, T47D; type: cell-based, human; details: Homo sapiens, T47D; MTT, 48 hours
How it was run: as §1

SW-620 = test: NCI60 five-dose screen; type: cell-based; details: Homo sapiens, SW-620, colon cancer; for CC50: read-out: LC50 (the source's name)
UACC-257 = test: NCI60 five-dose screen; type: cell-based; details: Homo sapiens, UACC-257, melanoma; for CC50: read-out: LC50 (the source's name)
SK-MEL-2 = test: NCI60 five-dose screen; type: cell-based; details: Homo sapiens, SK-MEL-2, melanoma; for CC50: read-out: LC50 (the source's name)
PC-3 = test: NCI60 five-dose screen; type: cell-based; details: Homo sapiens, PC-3, prostate cancer; for CC50: read-out: LC50 (the source's name)
U251 = test: NCI60 five-dose screen; type: cell-based; details: Homo sapiens, U-251, U251, CNS cancer; for CC50: read-out: LC50 (the source's name)
RXF 393 = test: NCI60 five-dose screen; type: cell-based; details: Homo sapiens, RXF 393, renal cancer; for CC50: read-out: LC50 (the source's name)
EKVX = test: NCI60 five-dose screen; type: cell-based; details: Homo sapiens, NSC lung cancer; for CC50: read-out: LC50 (the source's name)
KM12 = test: NCI60 five-dose screen; type: cell-based; details: Homo sapiens, KM12, colon cancer; for CC50: read-out: LC50 (the source's name)
IGROV1 = test: NCI60 five-dose screen; type: cell-based; details: Homo sapiens, IGROV-1; IGROV1, ovarian cancer
NCI/ADR-RES = test: NCI60 five-dose screen; type: cell-based, human; details: Homo sapiens, ovarian cancer; for CC50: read-out: LC50 (the source's name)
CCRF-CEM = test: NCI60 five-dose screen; type: cell-based; details: Homo sapiens, leukemia; for CC50: read-out: LC50 (the source's name)
K-562 = test: NCI60 five-dose screen; type: cell-based; details: Homo sapiens, K562, K-562, leukemia; for CC50: read-out: LC50 (the source's name)

Structure (SMILES): O=C(N/N=C/c1cc(Br)c(Br)[nH]1)c1[nH]c2ccc(Br)cc2c1-c1ccccc1 [Derivative 3f, (E)-5-Bromo-N′-((4,5-dibromo-1H-pyrrol-2-yl)methylene)-3-phenyl-1H-indole-2-carbohydrazide]
- GI50 (NCI-H522): 623 nM
- CC50 (NCI-H522): 23.2 µM
- GI50 (HOP-92): 1880 nM
- CC50 (HOP-92): 46 µM
- GI50 (HCT-15): 2700 nM
- CC50 (HCT-15): 33.1 µM
- GI50 (UO-31): 1940 nM
- CC50 (UO-31): 38.5 µM
- GI50 (SF-295): 2200 nM
- CC50 (SF-295): 26.9 µM
- GI50 (HCT-116): 3240 nM
- CC50 (HCT-116): > 100 µM
- GI50 (MCF7): 1990 nM
- CC50 (MCF7): 33.7 µM
- GI50 (OVCAR-8): 1980 nM
- CC50 (OVCAR-8): 17.2 µM
- IC50 at 48 h [1]: 47.9 ± 0.5 µM
- Selectivity index (SI) [2]: 2.51
- GI50 (HT29): 2330 nM
- CC50 (HT29): 20.8 µM
- GI50 (MOLT-4): 3380 nM
- CC50 (MOLT-4): > 100 µM
- GI50 (SF-539): 1780 nM
- CC50 (SF-539): 15.7 µM
- GI50 (OVCAR-4): 5.2 µM
- CC50 (OVCAR-4): 45.8 µM
- GI50 (NCI-H322M): 3.73 µM
- CC50 (NCI-H322M): 62.8 µM
- GI50 (SK-MEL-28): 5.1 µM
- CC50 (SK-MEL-28): 47 µM
- GI50 (NCI-H460): 2530 nM
- CC50 (NCI-H460): 32.7 µM
- GI50 (SN12C): 2150 nM
- CC50 (SN12C): 30.7 µM
- GI50 (T-47D): 3.84 µM
- CC50 (T-47D): 74.3 µM
- IC50 [3]: 19.1 ± 5.4 µM
- GI50 (SW-620): 2960 nM
- CC50 (SW-620): 41.9 µM
- GI50 (UACC-257): 3240 nM
- CC50 (UACC-257): 45.7 µM
- GI50 (SK-MEL-2): 2680 nM
- CC50 (SK-MEL-2): 36.3 µM
- GI50 (PC-3): 2290 nM
- CC50 (PC-3): 63.3 µM
- GI50 (U251): 2950 nM
- CC50 (U251): 36 µM
- GI50 (RXF 393): 1550 nM
- CC50 (RXF 393): 34.3 µM
- GI50 (EKVX): 3.45 µM
- CC50 (EKVX): 44.8 µM
- GI50 (KM12): 2460 nM
- CC50 (KM12): 35.3 µM
- GI50 (IGROV1): 530 nM
- GI50 (NCI/ADR-RES): 1140 nM
- CC50 (NCI/ADR-RES): 9.73 µM
- GI50 (CCRF-CEM): 2890 nM
- CC50 (CCRF-CEM): > 100 µM
- GI50 (K-562): 1930 nM
- CC50 (K-562): 76.4 µM

Structure (SMILES): O=C(N/N=C/c1[nH]ccc1Cl)c1[nH]c2ccc(Br)cc2c1-c1ccccc1 [Derivative 3g, (E)-5-Bromo-N′-((3-chloro-1H-pyrrol-2-yl)methylene)-3-phenyl-1H-indole-2-carbohydrazide]
- GI50 (NCI-H522): 233 nM
- CC50 (NCI-H522): 20.4 µM
- GI50 (HOP-92): 2790 nM
- CC50 (HOP-92): 50.1 µM
- GI50 (HCT-15): 465 nM
- CC50 (HCT-15): 34.3 µM
- GI50 (UO-31): 577 nM
- CC50 (UO-31): 35.7 µM
- GI50 (SF-295): 501 nM
- CC50 (SF-295): 26 µM
- GI50 (HCT-116): 467 nM
- CC50 (HCT-116): 79.9 µM
- GI50 (MCF7): 376 nM
- CC50 (MCF7): 42.2 µM
- GI50 (OVCAR-8): 481 nM
- CC50 (OVCAR-8): 27.7 µM
- IC50 at 48 h [1]: 20.1 ± 10.3 µM
- Selectivity index (SI) [2]: 2.45
- GI50 (HT29): 401 nM
- CC50 (HT29): 58.5 µM
- GI50 (MOLT-4): 1710 nM
- CC50 (MOLT-4): > 100 µM
- GI50 (SF-539): 378 nM
- CC50 (SF-539): 18.5 µM
- GI50 (OVCAR-4): 3.09 µM
- CC50 (OVCAR-4): 43.5 µM
- GI50 (NCI-H322M): 3.14 µM
- CC50 (NCI-H322M): 48.8 µM
- GI50 (SK-MEL-28): 0.909 µM
- CC50 (SK-MEL-28): 47.5 µM
- GI50 (NCI-H460): 448 nM
- CC50 (NCI-H460): 34.3 µM
- GI50 (SN12C): 1340 nM
- CC50 (SN12C): 29.2 µM
- GI50 (T-47D): 2.5 µM
- CC50 (T-47D): 81.9 µM
- IC50 [3]: 8.2 ± 1.8 µM
- GI50 (SW-620): 499 nM
- CC50 (SW-620): 50.2 µM
- GI50 (UACC-257): 738 nM
- CC50 (UACC-257): 52 µM
- GI50 (SK-MEL-2): 1070 nM
- CC50 (SK-MEL-2): 38.7 µM
- GI50 (PC-3): 826 nM
- CC50 (PC-3): 63.6 µM
- GI50 (U251): 630 nM
- CC50 (U251): 37.7 µM
- GI50 (RXF 393): 346 nM
- CC50 (RXF 393): 42.1 µM
- GI50 (EKVX): 2.66 µM
- CC50 (EKVX): 38.1 µM
- GI50 (KM12): 488 nM
- CC50 (KM12): 34.6 µM
- GI50 (IGROV1): 734 nM
- GI50 (NCI/ADR-RES): 219 nM
- CC50 (NCI/ADR-RES): 10.5 µM
- GI50 (CCRF-CEM): 1530 nM
- CC50 (CCRF-CEM): > 100 µM
- GI50 (K-562): 413 nM
- CC50 (K-562): > 100 µM
